Type in all cases: functional, cell-based
The test system of assay [1] is BaF3. Put plainly: Antiproliferative activity against PIM1-dependent mouse BAF3 cells.
Assay [2] is described as follows: Antiproliferative activity against human MM1S cells. Conditions: MM1.S.
Assay [3] deals with BaF3. Put plainly: Antiproliferative activity against IL3-dependent mouse BAF3 cells.

In general, IC50 refers to the point on the concentration scale where inhibition reaches its midpoint. In the assay with BaF3 [1], `Cn1ncc(NC(=O)c2nc(-c3c(F)cccc3F)sc2N)c1[C@]12CC[C@H](O1)[C@@H](N)CC2` had an IC50 of 0.0192 µM.
In general, EC50 refers to the concentration at which the effect is half-maximal. A lower EC50 goes with an effect from little substance. In the case of `C[C@H]1O[C@@H](c2c(NC(=O)c3csc(-c4c(F)cccc4F)n3)cnn2C)C[C@@H](N)[C@]1(C)O` (single isomer, unassigned), the EC50 in assay [2] was 6.9 µM. The IC50 is above 25 µM in the assay on BaF3 [3] and 0.0968 µM in the assay on BaF3 [1].
Consider `Cn1ncc(NC(=O)c2csc(-c3c(F)cc([C@H]4CCCO4)cc3F)n2)c1[C@@H]1CC[C@@H](N)[C@H](F)CO1` (single isomer, unassigned), for which the concentration for a half-maximal effect (EC50) in assay [2] was found to be 1.7 µM. The IC50 in the assay on BaF3 [3] is 12.2 µM; in the assay with BaF3 [1], 0.0372 µM.

(Values after ChEMBL document CHEMBL3351623, “Pim kinase inhibitors for the treatment of cancer and possibly more” (ACS Med Chem Lett, 2014).)
